Tests used:
Test in all cases: Test I pre-/postemergence, mixtures of Cpd. No. 20 with saflufenacil or pyroxasulfone
Assay type in all cases: in vivo
[1] = test system: common waterhemp (AMATU; Amaranthus rudis); conditions: for Plant response rating (0 to 100 scale): Preemergence, AMATU
Description: (§1) This test evaluated the effect of mixtures of Cpd. No. 20 with saflufenacil or pyroxasulfone on several plant species. Seeds of plant species selected from corn (ZEAMD; Zea mays, cv. ‘Pioneer 1184’), soybean (GLXMA; Glycine max, cv. Pioneer 35T58), giant foxtail (SETFA; Setaria faberi), palmer amaranth (AMAPA; Amaranthus palmeri), common waterhemp (AMATU; Amaranthus rudis), mare's tail (ERICA; Conyza canadensis), and common ragweed (AMBEL; Ambrosia artemisiifolia) were planted in pots containing Tama Silt Loam soil and treated preemergence with a directed soil spray using test chemicals formulated in a non-phytotoxic solvent mixture which included a surfactant.
(§2) At the same time, plants selected from these crop and weed species were planted in pots containing Redi-Earth® planting medium (Scotts Company, 14111 Scottslawn Road, Marysville, Ohio 43041) comprising spaghnum peat moss, vermiculite, wetting agent and starter nutrients and treated postemergence with test chemicals formulated in the same manner. Plants ranged in height from 2 to 10 cm and were in the one- to two-leaf stage for the postemergence treatment. Treated plants and untreated controls were maintained in a greenhouse for approximately 14-21 d, after which time all treated plants were compared to untreated controls and visually evaluated for injury. Plant response ratings, summarized in Tables 11 to 14, are based on a 0 to 100 scale where 0 is no effect and 100 is complete control. A dash (-) response means no test result. Test results are presented as a mean of 4 reps.

[2] = test system: palmer amaranth (AMAPA; Amaranthus palmeri); conditions: for Plant response rating (0 to 100 scale): Preemergence, AMAPA
Description: as §1, §2

[3] = test system: giant foxtail (SETFA; Setaria faberi); conditions: for Plant response rating (0 to 100 scale): Preemergence, SETFA
Description: as §1, §2

[4] = test system: common ragweed (AMBEL; Ambrosia artemisiifolia); conditions: for Plant response rating (0 to 100 scale): Preemergence, AMBEL
Description: as §1, §2

[5] = test system: mare's tail (ERICA; Conyza canadensis); conditions: for Plant response rating (0 to 100 scale): Preemergence, ERICA
Description: as §1, §2

[6] = test system: corn (ZEAMD; Zea mays, cv. ‘Pioneer 1184’); conditions: for Plant response rating (0 to 100 scale): Preemergence, ZEAMD
Description: as §1, §2

[7] = test system: soybean (GLXMA; Glycine max, cv. Pioneer 35T58); conditions: for Plant response rating (0 to 100 scale): Preemergence, GLXMA
Description: as §1, §2

| SMILES | AMATU plant response rating, 0 to 100 scale ([1]; postemergence, 4 g a.i./ha) | AMATU plant response rating, 0 to 100 scale ([1]; postemergence, 8 g a.i./ha) | AMAPA plant response rating, 0 to 100 scale ([2]; postemergence, 4 g a.i./ha) | AMAPA plant response rating, 0 to 100 scale ([2]; postemergence, 8 g a.i./ha) | SETFA plant response rating, 0 to 100 scale ([3]; postemergence, 4 g a.i./ha) | SETFA plant response rating, 0 to 100 scale ([3]; postemergence, 8 g a.i./ha) | AMBEL plant response rating, 0 to 100 scale ([4]; postemergence, 4 g a.i./ha) | AMBEL plant response rating, 0 to 100 scale ([4]; postemergence, 8 g a.i./ha) | ERICA plant response rating, 0 to 100 scale ([5]; postemergence, 4 g a.i./ha) | ERICA plant response rating, 0 to 100 scale ([5]; postemergence, 8 g a.i./ha) | ZEAMD plant response rating, 0 to 100 scale ([6]; postemergence, 4 g a.i./ha) | ZEAMD plant response rating, 0 to 100 scale ([6]; postemergence, 8 g a.i./ha) | GLXMA plant response rating, 0 to 100 scale ([7]; postemergence, 4 g a.i./ha) | GLXMA plant response rating, 0 to 100 scale ([7]; postemergence, 8 g a.i./ha) | also measured |
| --- | --- | --- | --- | --- | --- | --- | --- | --- | --- | --- | --- | --- | --- | --- | --- |
| CC(C)N(C)S(=O)(=O)NC(=O)c1cc(-n2c(=O)cc(C(F)(F)F)n(C)c2=O)c(F)cc1Cl [Saflufenacil, saflufenacil, reference compound] | 85 | 90 | 84 | 70 | 23 | 55 | 100 | 100 | 95 | 100 | 15 | 70 | 74 | 91 | Plant response rating (0 to 100 scale) ([1]; Saflufenacil 4 g a.i./ha alone): 55; Plant response rating (0 to 100 scale) ([1]; Saflufenacil 8 g a.i./ha alone): 84; Plant response rating (0 to 100 scale) ([2]; Saflufenacil 4 g a.i./ha alone): 35; Plant response rating (0 to 100 scale) ([2]; Saflufenacil 8 g a.i./ha alone): 88; Plant response rating (0 to 100 scale) ([3]; Saflufenacil 4 g a.i./ha alone): 0; Plant response rating (0 to 100 scale) ([3]; Saflufenacil 8 g a.i./ha alone): 0; Plant response rating (0 to 100 scale) ([4]; Saflufenacil 4 g a.i./ha alone): 96; Plant response rating (0 to 100 scale) ([4]; Saflufenacil 8 g a.i./ha alone): 100; Plant response rating (0 to 100 scale) ([5]; Saflufenacil 4 g a.i./ha alone): 94; Plant response rating (0 to 100 scale) ([5]; Saflufenacil 8 g a.i./ha alone): 100; Plant response rating (0 to 100 scale) ([6]; Saflufenacil 4 g a.i./ha alone): 0; Plant response rating (0 to 100 scale) ([6]; Saflufenacil 8 g a.i./ha alone): 0; Plant response rating (0 to 100 scale) ([7]; Saflufenacil 4 g a.i./ha alone): 0; Plant response rating (0 to 100 scale) ([7]; Saflufenacil 8 g a.i./ha alone): 0 |
| Cn1nc(C(F)(F)F)c(CS(=O)(=O)C2=NOC(C)(C)C2)c1OC(F)F [Pyroxasulfone, pyroxasulfone, reference compound] | 0 | 0 | 15 | 0 | 0 | 6 | 0 | 24 | 0 | 0 | 0 | 0 | 0 | 15 | AMATU plant response rating, 0 to 100 scale ([1]; preemergence, 4 g a.i./ha): 5; AMATU plant response rating, 0 to 100 scale ([1]; preemergence, 8 g a.i./ha): 45; AMAPA plant response rating, 0 to 100 scale ([2]; preemergence, 4 g a.i./ha): 0; AMAPA plant response rating, 0 to 100 scale ([2]; preemergence, 8 g a.i./ha): 38; SETFA plant response rating, 0 to 100 scale ([3]; preemergence, 4 g a.i./ha): 76; SETFA plant response rating, 0 to 100 scale ([3]; preemergence, 8 g a.i./ha): 98; AMBEL plant response rating, 0 to 100 scale ([4]; preemergence, 4 g a.i./ha): 0; AMBEL plant response rating, 0 to 100 scale ([4]; preemergence, 8 g a.i./ha): 0; ERICA plant response rating, 0 to 100 scale ([5]; preemergence, 4 g a.i./ha): 79; ERICA plant response rating, 0 to 100 scale ([5]; preemergence, 8 g a.i./ha): 100; ZEAMD plant response rating, 0 to 100 scale ([6]; preemergence, 4 g a.i./ha): 0; ZEAMD plant response rating, 0 to 100 scale ([6]; preemergence, 8 g a.i./ha): 0; GLXMA plant response rating, 0 to 100 scale ([7]; preemergence, 4 g a.i./ha): 0; GLXMA plant response rating, 0 to 100 scale ([7]; preemergence, 8 g a.i./ha): 0 |
